pIC50: −log10 of the molar value. Values belong to the compound of their own block, whether it stands above or below them.
Legend:
BALB/c male mice [1] = experiment: Aristolochic acid (AA)-induced acute tubulo-interstitial kidney injury model; type: in vivo, mouse; settings: AA 1 x 5 mg/kg i.p. alone; control group 44 ± 5
Description: (§1) All experiments were conducted in accordance with federal and local regulations, according to a protocol approved by the animal ethics committee of the Canton de Vaud, Switzerland (No. 2655.0). Kidney injury was induced by intraperitoneal (i.p.) injection of AA (Sigma-Aldrich, 1 × 5 mg/kg) or ADR (Adriblastin, Pfizer, 1 × 10 mg/kg) in 10-week-old BALB/c male mice (n = 5–7 mice/experimental group). SS-31 analogs were diluted in 0.9% NaCl and administered i.p. once a day, starting 1 day before the disease-inducing drugs (day −1) at a dose of 3 mg/kg and then daily until day 6. The animals were weighted at days 0, 3, and 6, and sacrificed at day 7. The level of protein in urine was semi-quantitatively assessed using Albustix reagent strips (Bayer, Basel, Switzerland). At the end of the treatment period, the mice were sacrificed to remove both kidneys. The kidneys were spliced in four equal fragments containing the cortex and medulla. One fragment was immediately snap-frozen in liquid nitrogen for real-time quantitative polymerase chain reaction (qRT-PCR) and Western blot experiments, one fragment was included in OCT (Tissue-Tek, VWR International, Dietikon, Switzerland) and frozen for histoenzymography, one fragment was frozen at −80°C and used for pharmacokinetic (PK) measurements, and one fragment was fixed in 4% paraformaldehyde and included in paraffin for histology. […]

BALB/c male mice [2] = experiment: Adriamycin (ADR)-induced glomerular damage model; type: in vivo, mouse; settings: ADR 1 x 10 mg/kg i.p. alone, at the time of sacrifice
Description: as §1

[3] = target: T1, γ-glutamyltranspeptidase (γ-GT) (Rattus norvegicus, UniProt P07314); experiment: γ-GT enzymatic activity in intact living EC219 cells (γ-Glu-AMC substrate); type: cell-based; settings: 40 µM γ-Glu-AMC
T1 construct: These cells express high levels of APA and γ-GT activities and can be used to measure kinetics in living cells; endogenous in cells; host or cells: EC219 rat brain-derived endothelial cells
Description: The preparation and characterization of rat brain-derived EC219 endothelial cells were previously described ([Juillerat-Jeanneret et al., 1992]). These cells express high levels of APA and γ-GT activities and can be used to measure kinetics in living cells as APA and γ-GT-positive representative cell models. The cells were grown in Dulbecco’s modified Eagle medium (DMEM) containing 1 g/L glucose, 10% heat-inactivated fetal calf serum (FCS), and antibiotics on uncoated cell culture plastic plates and flasks. […]
Stock solutions of α-Glu-AMC (APA) and γ-Glu-AMC and Gly-Gly (γ-GT) substrates, all from Bachem, were prepared at 10 mM in DMSO. […] The increase in absorbance was measured at 37°C in a thermostated fluorescence multiwell-plate reader (CytoFluor Series 4000; PerSeptive Biosystems, MA, USA) at λex = 360 nm/λem = 460 nm using the linear portion of the curves. The kinetics values were then graphically determined or according to Wu and colleagues ([Wu et al., 2011]).
(A) Intact living EC219 cells were exposed to increasing concentrations of either amastatin (left panel) or acivicin (right panel), two well-characterized enzymatic activity inhibitors of APA or γ-GT, respectively. The activities of the enzymes aminopeptidase A (APA) or γ-glutamyltranspeptidase (γ-GT) were determined using 40 µM of the substrates (S), α-Glu-AMC or γ-Glu-AMC, respectively. […] Data were analyzed graphically. […]

[4] = target: T2, γ-glutamyltranspeptidase (γ-GT) (Mus musculus, UniProt Q60928); experiment: Histoenzymography of γ-GT activity on frozen kidney sections of ADR-treated mice; type: biochemical; settings: kidney sections of ADR-exposed mice, γ-Glu-βNA substrate, 37°C
T2 construct: from tissue; host or cells: frozen kidney sections of ADR-treated BALB/c male mice
Description: (§2) Enzymatic activities were evaluated by histoenzymography on OCT-embedded frozen kidneys sections (7 µm), as previously described ([Juillerat-Jeanneret et al., 1992]; [Juillerat-Jeanneret et al., 2000]; [Juillerat-Jeanneret et al., 2003]). Briefly, slides were fixed for 5 min in cold (−20°C) acetone, air dried at room temperature, rehydrated for 5 min in 0.9% NaCl, and exposed to the α-Glu-4-methoxy-β-naphtylamide (APA; Bachem) or γ-Glu-4-methoxy-β-naphtylamide (γ-GT; Serva) substrates and Fast Blue B (Sigma-Aldrich) at 37°C for 15 to 60 min until a red coloration was visible. The slides were washed in distilled water, counterstained with hematoxylin (Mayer) for 1 min, rinsed under tap water and then with Scott solution for 1 min, and mounted in Aquamount (Immu-mount; Thermo Shandon, Pittsburgh, PA, USA) and analyzed with a Nikon Eclipse E800 microscope and digital DXM1200 camera using ACT-1 software.
(§3) Sequential sections (7 µm) of frozen OCT-embedded kidneys of adriamycin (ADR)-treated mice were exposed at 37°C to β-methoxynaphthylamide (β-NA) specific substrates of aminopeptidase A (α-Glu-βNA, upper panels) or γ-glutamyltranspeptidase (γ-Glu-βNA, lower panels) and Fast Blue B, in the absence (none) or the presence of SS-31, α-Glu-SS-31 or γ-Glu-SS-31. The sections were then counterstained with light hematoxylin reagent. The enzymatic activity is visualized as a red precipitate. […]

aminopeptidase A (APA) = target: T3, aminopeptidase A (APA) (Mus musculus, UniProt P16406); experiment: Histoenzymography of APA activity on frozen kidney sections of ADR-treated mice; type: biochemical; settings: kidney sections of ADR-exposed mice, α-Glu-βNA substrate, 37°C
T3 construct: from tissue; host or cells: frozen kidney sections of ADR-treated BALB/c male mice
T3 sequence (P16406 1-945): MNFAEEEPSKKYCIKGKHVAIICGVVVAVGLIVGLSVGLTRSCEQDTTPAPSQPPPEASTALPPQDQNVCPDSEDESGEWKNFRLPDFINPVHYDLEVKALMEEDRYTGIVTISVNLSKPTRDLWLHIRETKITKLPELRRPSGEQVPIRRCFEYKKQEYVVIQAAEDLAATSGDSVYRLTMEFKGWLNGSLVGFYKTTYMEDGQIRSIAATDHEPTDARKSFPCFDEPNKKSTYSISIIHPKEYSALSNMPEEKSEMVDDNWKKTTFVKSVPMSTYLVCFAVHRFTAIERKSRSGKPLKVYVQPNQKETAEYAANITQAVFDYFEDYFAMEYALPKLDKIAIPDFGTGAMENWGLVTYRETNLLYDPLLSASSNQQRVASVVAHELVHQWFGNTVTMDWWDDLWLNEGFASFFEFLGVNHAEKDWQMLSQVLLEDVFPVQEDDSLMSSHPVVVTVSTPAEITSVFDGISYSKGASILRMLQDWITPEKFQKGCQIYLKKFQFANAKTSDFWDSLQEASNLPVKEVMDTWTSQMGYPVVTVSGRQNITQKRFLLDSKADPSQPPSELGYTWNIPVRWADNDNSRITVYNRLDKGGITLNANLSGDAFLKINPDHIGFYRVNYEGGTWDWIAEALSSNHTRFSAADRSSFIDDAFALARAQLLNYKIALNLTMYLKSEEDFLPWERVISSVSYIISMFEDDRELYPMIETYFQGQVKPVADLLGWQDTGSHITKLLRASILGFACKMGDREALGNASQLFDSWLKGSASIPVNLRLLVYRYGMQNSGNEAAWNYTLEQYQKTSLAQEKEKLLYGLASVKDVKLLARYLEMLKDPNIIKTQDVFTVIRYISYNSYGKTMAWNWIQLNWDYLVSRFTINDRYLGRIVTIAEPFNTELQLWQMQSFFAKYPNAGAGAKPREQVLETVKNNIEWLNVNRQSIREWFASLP
Description: as §2, §3

T2 sequence (Q60928 whole entry): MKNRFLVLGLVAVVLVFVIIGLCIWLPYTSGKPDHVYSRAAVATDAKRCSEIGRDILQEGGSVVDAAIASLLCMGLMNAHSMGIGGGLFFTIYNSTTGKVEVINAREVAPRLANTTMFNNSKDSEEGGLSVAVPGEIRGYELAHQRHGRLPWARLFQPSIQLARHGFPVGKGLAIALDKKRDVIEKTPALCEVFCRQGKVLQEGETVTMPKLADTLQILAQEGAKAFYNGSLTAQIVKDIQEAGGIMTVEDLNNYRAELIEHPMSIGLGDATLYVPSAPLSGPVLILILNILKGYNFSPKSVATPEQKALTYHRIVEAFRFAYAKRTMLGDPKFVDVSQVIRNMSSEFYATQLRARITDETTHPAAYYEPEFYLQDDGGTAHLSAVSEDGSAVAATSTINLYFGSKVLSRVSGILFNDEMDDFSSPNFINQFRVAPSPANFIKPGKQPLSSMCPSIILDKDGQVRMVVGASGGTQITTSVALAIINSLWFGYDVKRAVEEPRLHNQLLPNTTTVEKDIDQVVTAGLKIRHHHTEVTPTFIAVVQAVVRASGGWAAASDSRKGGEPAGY
T1 sequence (P07314 whole entry): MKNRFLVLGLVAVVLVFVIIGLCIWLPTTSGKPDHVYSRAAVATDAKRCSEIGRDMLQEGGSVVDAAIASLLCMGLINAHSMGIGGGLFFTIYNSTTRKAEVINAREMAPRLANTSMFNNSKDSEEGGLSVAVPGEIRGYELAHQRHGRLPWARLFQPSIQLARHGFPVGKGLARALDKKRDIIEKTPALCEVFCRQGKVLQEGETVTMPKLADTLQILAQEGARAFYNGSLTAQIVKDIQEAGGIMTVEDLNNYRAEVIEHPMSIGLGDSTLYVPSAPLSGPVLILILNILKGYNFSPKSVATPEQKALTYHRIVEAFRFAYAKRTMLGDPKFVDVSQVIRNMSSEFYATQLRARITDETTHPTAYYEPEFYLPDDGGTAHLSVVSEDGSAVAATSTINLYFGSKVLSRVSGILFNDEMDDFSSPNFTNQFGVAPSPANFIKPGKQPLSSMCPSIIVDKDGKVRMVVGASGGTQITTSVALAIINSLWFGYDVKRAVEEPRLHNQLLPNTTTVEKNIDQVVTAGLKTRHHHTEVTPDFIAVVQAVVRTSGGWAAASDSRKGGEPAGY

Compound: COc1cccc2c1cc([N+](=O)[O-])c1c(C(=O)O)cc3c(c12)OCO3 [AA, aristolochic acid]
mean creatinine (BALB/c male mice [1]): 258 ± 92 µmol/L

Compound: COc1cccc2c1C(=O)c1c(O)c3c(c(O)c1C2=O)C[C@@](O)(C(=O)CO)C[C@@H]3O[C@H]1C[C@H](N)[C@H](O)[C@H](C)O1 [ADR, adriamycin]
mean creatinine (BALB/c male mice [2]): 33 ± 5 µmol/L

pIC50 [3]: 4.32
Compound: N[C@H](C(=O)O)[C@@H]1CC(Cl)=NO1 [acivicin]

enzymatic activity of γ-GT (histoenzymography) [4]: modified neither | enzymatic activity of APA (histoenzymography) (aminopeptidase A (APA)): not
Compound: H-γ-Glu-D-Arg-DMT-Lys-Phe-NH 2 .2TFA [γ-Glu-SS-31]

From article PMC6857474, “Differential Effects of the Mitochondria-Active Tetrapeptide SS-31 (D-Arg-dimethylTyr-Lys-Phe-NH2) and Its Peptidase-Targeted Prodrugs in Experimental Acute Kidney Injury” (Frontiers in Pharmacology, 2019)
